“Also recorded” adds a separate entry of the source.
What was measured:
[1] = test system: human carcinoma KB-3-1 cancer cell line; test: Sulfo-Rhodamine B (SRB) cytotoxicity assay, KB-3-1; assay type: cell-based; details: drug-sensitive KB-3-1 cells, 72 hours, median-effect plot
Protocol: Assays were carried out in triplicate against human carcinoma KB-3-1 cancer cell line. […] The treatment of KB-3-1 cancer cells lasted for 72 hours and the cell number in each sample was estimated by correlating to optical density (OD) at 515 nm. […] The median dose value was determined from plots of median effects and was equivalent to LD50 (Skehan P.; Storeng R.; Scudiero D.; Monks A.; McMahon J.; Vistica D; Warren J T.; Bokesch H.; Kenney S.; Boyd M R.; J Natl Cancer Inst 1990 82:1107-1112).

MDR KB-V1 cells [2] = test: Sulfo-Rhodamine B (SRB) cytotoxicity assay, KB-V1; assay type: cell-based, human; details: 3-day dose-response
Protocol: In the following experiments, tests were conducted using the human cancer cell lines KB-3-1 and KB-V1. The MDR cancer cells KB-V1 were selected from drug sensitive KB-3-1 cells treated by vinblastine. The cell lines (American Type Culture Collection, MD, USA) were routinely grown in MEM (Gibco, MD, USA) containing 10% fetal bovine serum (FBS) and 1% antibiotic solution (Gibco, MD, USA), and 300 ng/ml of vinblastine for maintenance of drug resistance for KB-V1 cells. Cultures of the cells were maintained in a humidified 5% CO2 incubator.
The color intensity of SRB, positively correlated to number of cell, was estimated by correlating to OD at 515 nm. The concentration of DMSO and ethanol in the drug solvent of APC was 20 wt % and 80 wt % respectively. The concentration of DMSO in each culture sample was ≦0.1%.

KB-3-1 cells [3] = test: Apoptosis study by DNA ladder, KB-3-1; assay type: cell-based, human; details: 24 hours
Protocol: In this experiment, three groups of KB-3-1 cells were treated for 24 hours at different concentrations (17.26 μM, 34.52 μM & 172.56 μM) of APC. A control group of KB-3-1 cells was treated as negative control for the same amount of time. Approximately 5×10^6 cells from each of the four groups were washed in phosphate buffered saline (PBS) and their genomic DNA was extracted using Apoptotic DNA Ladder Kit-Best. Nr. 1 835 246 (Roche) according to the manufacturer's manual. The extracted DNA was analyzed by electrophoresis in 2% agarose gel containing 0.1% ethidium bromide in tris galacial acetic acid (TAE) buffer for 30 minutes at 99v. DNA bands of the gel were observed and recorded by Multi-Imager (Bio-Rad, California, USA).
(§1) This experiment was a continuation of Experiment 7. Apoptotic studies by DNA ladder was carried out for 24 hours with drug treatment at different concentrations (17.26 μM, 34.52 μM & 172.56 μM) of APC. A total of eight groups of cells were used. 5×10^6 cells were washed in PBS. Their genomic DNA was extracted using Apoptotic DNA Ladder Kit-Best. Nr. 1 835 246 (Roche) according to Manufacturer's manual. DNA was analyzed by electrophoresis in 2% agarose gel containing 0.1% ethidium bromide in TAE buffer (99v, 30 min). DNA bands were observed and recorded by Multi-Imager (Bio-Rad, California, USA).

KB-V1 cells = test: Apoptosis study by DNA ladder, KB-V1; assay type: cell-based, human; details: 24 hours
Protocol: as §1

KB-3-1 cells [4] = test: Combination Index (CI-isobologram) of APC and doxorubicin, KB-3-1; assay type: cell-based, human
Excerpt: (§2) In this experiment, the CI-isobologram by Chou and Talalay was used to determine the Combination Index (CI) of APC and doxorubicin. In order to understand the synergistic effect of APC with a conventional cancer drug, a number of combinations of drug concentrations were used in the combination studies. A mutually non-exclusive equation was used to determine the CIs, and the equation is illustrated and explained in the Appendix section below. CI>1, CI=1, and CI<1 indicate antagonism, additive effect, or synergism, respectively. The explanation of the determination of combination indices (CI) is provided in the Appendix section towards the end of the description.
(§3) The Chou and Talalay (Chou T C; Talay P. Adv Enzyme Regul 1984 22:27-55) combination index CI-isobologram equation for two-drug combination is: [formula]
(§4) Firstly, the Din (Median Dose or LD50) and m of each treatment was determined according to the Median-Effect Plot. […] Combination Indices (CI) were calculated at various fractional kill (fa).
(§5) The CI-isobologram by Chou and Talalay was used to determine the Combination Indices (CI) of APC and doxorubicin. […] The mutually non-exclusive equations were used to determine the CIs and each CI was calculated from the mean affected fraction at each drug ratio concentration.

MDR KB-V1 cells [5] = test: Combination Index (CI-isobologram) of APC and doxorubicin, KB-V1; assay type: cell-based, human; details: APC 2.0219 μM to 129.3996 μM with doxorubicin, particularly fractional kill greater than 50%
Excerpt: as §2, §3, §4, §5

MDR1 mRNA = test: Reverse transcription-PCR of MDR1; assay type: cell-based, human; details: KB-3-1 and KB-V1 cells, 1× and 2× dose of LD50
Protocol: (§6) 1 μg of total RNA isolated from cells using High Pure™ RNA Isolation Kits (Roche) was incubated with 100 ng random primers (Gibco BRL) and DEPC-treated water (total volume 10 μl) for 10 min at 65° C., then for 5 min on ice. Reverse transcription mixture contained 4 μl of 5× reaction buffer (50 mM Tris-HCl, 100 mM NaCl, 1 mM EDTA, 10 mM DTE, 0.05% polydocanol v/v, 50% glycerol v/v, pH 8.4), 2 μl 10 mM dNTP, 2 μl 100 mM dithiothreitol and 1 μl 50 units/μl Expand™ Reverse Transcriptase (Roche). The reaction lasted for 1.5 hours at 42° C. PCR amplifications were carried out using Expand™ Long Template PCR System (Roche). The primers used were cDNA sequences of p-glycoprotein (P-gp) SEQ ID NO. 1 (sense strand) and SEQ ID NO. 2 (anti-sense strand); cDNA sequences of β-actin SEQ ID NO. 3 (sense strand) and SEQ ID NO. 4 (anti-sense strand). […] of [α-^32P]dATP was added to 25 μl amplification reaction mix. The PCR was performed in a Gene Cycler™ (Bio-Rad) for 27 cycles, consisting of 1 min at 94° C., 1 min at 57° C. and 1 min at 72° C. The samples were heated for 5 min at 94° C. before the first cycle, and the extension time was lengthened to 10 min during the last cycle. PCR products resulted therefrom were size-fractionated on 10% polyacrylamide gel. Autoradiography was carried out with BioMax film (Kodak). Drug-sensitive KB-3-1 was used as control experiments. […]

P-glycoprotein (P-gp) = test: Western blotting of P-gp; assay type: cell-based, human; details: KB-3-1 and KB-V1 cells, 1× and 2× dose of LD50
Protocol: (§7) For protein analysis of P-gp and actin, cells were lysed in ice-cold lysis buffer (1% sodium deoxycholate, 0.1% SDS, 1% Triton X-100, 2 mM phenylmethylsulphonyl fluoride, 1% aprotinin). Total lysates were subjected to SDS/PAGE and electrotransferred to nitrocellulose membranes (Bio-Rad). Membranes were then incubated with anti-P-gp or anti-β-actin antibody (Calbiochem) in blocking buffer (10 mM Tris pH7.5, 100 mM NaCl, 0.1% Tween 20, 5% non-fat dry milk) for 1 hour at room temperature before incubation with horseradish-peroxidase-conjugated anti-(rabbit IgG) or anti-(mouse IgG) antibody (Gibco BRL) for 1 hour at room temperature. Immunobinding was detected by the ECL method (Amersham). β-actin polyclonal antibody (Oncogene Science, Uniondale, N.Y., USA) was used as internal standard. Drug-sensitive KB-3-1 was used as control experiments.

β-Actin = test: Reverse transcription-PCR of β-Actin (internal standard); assay type: cell-based, human; details: KB-3-1 and KB-V1 cells, 1× and 2× dose of LD50
Protocol: as §6

actin = test: Western blotting of actin; assay type: cell-based, human; details: KB-3-1 and KB-V1 cells, 1× and 2× dose of LD50
Protocol: as §7

KB-3-1 cells [6] = test: Doxorubicin accumulation assay (flow cytometry), KB-3-1; assay type: cell-based, human; details: pre-treatment, then 2 μM doxorubicin 30 min
Protocol: (§8) Data was collected with CellQuest Software and analysed with ModFitLT V2.0. Mean fluorescence intensities of 1×10^4 drug-treated cells were quantified and compared with the APC untreated cells. […] A negative control test was also performed.

MDR KB-V1 cells [7] = test: Doxorubicin accumulation assay (flow cytometry), KB-V1; assay type: cell-based, human
Protocol: as §8

Question: Which results are given for `C/C=C(/C)C(=O)OC1C(OC(C)=O)c2c(ccc3ccc(=O)oc23)OC1(C)C` (stereo not drawn) [APC, cis-3′-angeloyl-4′-acetoxy-khellactone]?
Answer: LD50 [1]: 41.9153 ± 2.8016 µM; LD50 (MDR KB-V1 cells [2]): 17.2656 ± 8.2441 µM; DNA ladder, state of DNA (KB-3-1 cells [3]; 17.26 μM): little affected; apoptosis (DNA fragmentation, DNA ladder) (KB-3-1 cells [3]; 172.6 μM): significantly more apoptosis; DNA ladder, state of DNA (KB-V1 cells; 17.26 μM): slightly cut; DNA ladder, state of DNA (KB-V1 cells; 172.6 μM): cut in larger extent; synergism with doxorubicin (KB-3-1 cells [4]; APC 2.0219 μM to 129.3996 μM with doxorubicin): relatively low synergism; also recorded: little or no synergistic interactions; Combination Index (CI) (KB-3-1 cells [4]; drug combination C (doxorubicin 0.0431 μM, APC 129.3996 μM), all fractional kill): greater than 1; synergism with doxorubicin (MDR KB-V1 cells [5]): relatively high synergistic interactions; MDR1 mRNA level (MDR1 mRNA): reduced significantly; level of P-gp proteins (P-glycoprotein (P-gp)): lower; β-Actin mRNA level (β-Actin): not affected; level of actin (actin): not affected; accumulation of doxorubicin in cells (KB-3-1 cells [6]): more doxorubicin accumulated; accumulation of doxorubicin in cells (MDR KB-V1 cells [7]; KB-V1 cells, pre-treatment, then 2 μM doxorubicin 30 min): substantially higher accumulation of doxorubicin; increase of doxorubicin accumulation (MDR KB-V1 cells [7]; MDR KB-V1 cells, 6 hours incubation at LD50, then 2 μM doxorubicin 30 min): approximately 25%

Question: Which LD50 (MDR KB-V1 cells [2]) does the source give for `COc1cccc2c1C(=O)c1c(O)c3c(c(O)c1C2=O)C[C@@](O)(C(=O)CO)C[C@@H]3O[C@H]1C[C@H](N)[C@H](O)[C@H](C)O1` [doxorubicin, reference compound] here?
Answer: 3.0510 ± 0.2846 µM

Reference: patent US20040162337A1, “Chemical compounds having therapeutic activities in treating cancer” (priority 2003, published 2004)
